Measurements: the supplement of paper PMC10307832

compound: CC[C@@H]1C(=O)N(C)c2cnc(Nc3ccc(C(=O)NC4CCN(C)CC4)cc3OC)nc2N1C1CCCC1 [BI-2536] + Nc1nc2[nH]cc(CCc3ccc(C(=O)N[C@@H](CCC(=O)O)C(=O)O)cc3)c2c(=O)[nH]1 [Pemetrexed] (partner 0.2 µM); assay: relative viability (nuclei count vs DMSO), 5 days (fraction); higher = more cells survive; settings: first compound 0.01 µM
Outline: (§1)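 Values are medians from duplicate plates. Each reflects relative viability, defined as the nuclei count of treated wells over that of vehicle wells. Lung cancer cell lines in 1536-well plates were pin-tool dosed one day after seeding with one drug alone or with a fixed anchor-drug dose plus five library-drug doses (not always all listed) in √10 steps, then fixed, stained and imaged at 4× after 5 days.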

Cell Line	relative viability
LOU-NH91	0.38
ChaGo-K-1	0.268
NCI-H2170	0.285
NCI-H2405	1.07
HOP-62	0.394
LU99A	0.225
BEN	0.676
HARA	0.258
HCC-78	0.981
NCI-H322M	0.607
LCLC-97TM1	0.176
NCI-H2009	1.07
A-427	1.01
NCI-H441	0.287
NCI-H1734	0.39
NCI-H460	0.0637
NCI-H2347	0.437
SK-LU-1	0.94
NCI-H1395	0.73
201T	0.362
NCI-H1915	0.507
HCC-827	0.232
LXF-289	0.932
NCI-H23	0.619
NCI-H647	0.179
CAL-12T	1.04
NCI-H1651	0.613
EPLC-272H	0.294
NCI-H2228	0.382

same assay, conditions: first compound 0.03162 µM

Cell Line	relative viability
COR-L23	0.206
COR-L 105	1.13
LOU-NH91	0.39
ChaGo-K-1	0.264
NCI-H2170	0.254
NCI-H2405	0.992
HOP-62	0.29
LU99A	0.193
BEN	0.83
HARA	0.313
HCC-78	0.874
NCI-H322M	0.542
LCLC-97TM1	0.159
NCI-H2009	1
A-427	1.07
NCI-H441	0.242

Cell Line	relative viability
NCI-H1734	0.36
NCI-H460	0.0517
NCI-H2347	0.437
SK-LU-1	0.938
NCI-H1395	0.643
201T	0.302
NCI-H1915	0.427
HCC-827	0.253
LXF-289	0.812
NCI-H23	0.756
NCI-H647	0.148
CAL-12T	0.955
NCI-H1651	0.583
EPLC-272H	0.173
NCI-H2228	0.385

same assay, conditions: first compound 0.1 µM

Cell Line	relative viability
COR-L23	0.178
COR-L 105	1.01
LOU-NH91	0.284
ChaGo-K-1	0.215
NCI-H2170	0.183
NCI-H2405	0.375
HOP-62	0.225
LU99A	0.165
BEN	0.447
HARA	0.222
HCC-78	0.932
NCI-H322M	0.639
LCLC-97TM1	0.0973
NCI-H2009	0.674
A-427	0.504
NCI-H441	0.195

Cell Line	relative viability
NCI-H1734	0.279
NCI-H460	0.0606
NCI-H2347	0.38
SK-LU-1	0.392
NCI-H1395	0.34
201T	0.298
NCI-H1915	0.347
HCC-827	0.224
LXF-289	0.503
NCI-H23	0.201
NCI-H647	0.113
CAL-12T	0.623
NCI-H1651	0.511
EPLC-272H	0.0902
NCI-H2228	0.131

same assay, conditions: first compound 0.3162 µM

Cell Line	relative viability
COR-L23	0.144
COR-L 105	0.384
LOU-NH91	0.26
ChaGo-K-1	0.179
NCI-H2170	0.161
NCI-H2405	0.342
HOP-62	0.109
LU99A	0.152
BEN	0.325
HARA	0.146
HCC-78	0.895
NCI-H322M	0.454
LCLC-97TM1	0.0981
NCI-H2009	0.223
A-427	0.198
NCI-H441	0.148

Cell Line	relative viability
NCI-H1734	0.211
NCI-H460	0.0204
NCI-H2347	0.365
SK-LU-1	0.265
NCI-H1395	0.323
201T	0.208
NCI-H1915	0.147
HCC-827	0.227
LXF-289	0.0709
NCI-H23	0.128
NCI-H647	0.0907
CAL-12T	0.195
NCI-H1651	0.139
EPLC-272H	0.106
NCI-H2228	0.194

same assay, conditions: first compound 1 µM

Cell Line	relative viability
COR-L23	0.133
COR-L 105	0.362
LOU-NH91	0.336
ChaGo-K-1	0.17
NCI-H2170	0.163
NCI-H2405	0.457
HOP-62	0.151
LU99A	0.143
BEN	0.422
HARA	0.126
HCC-78	0.847
NCI-H322M	0.363
LCLC-97TM1	0.0935
NCI-H2009	0.274
A-427	0.196
NCI-H441	0.13

Cell Line	relative viability
NCI-H1734	0.188
NCI-H460	0.0163
NCI-H2347	0.344
SK-LU-1	0.243
NCI-H1395	0.402
201T	0.224
NCI-H1915	0.0852
HCC-827	0.187
LXF-289	0.0711
NCI-H23	0.182
NCI-H647	0.0929
CAL-12T	0.131
NCI-H1651	0.0892
EPLC-272H	0.0725
NCI-H2228	0.14

compound: CC[C@@H]1C(=O)N(C)c2cnc(Nc3ccc(C(=O)NC4CCN(C)CC4)cc3OC)nc2N1C1CCCC1 [BI-2536] + CC1(C)CCC(c2ccc(Cl)cc2)=C(CN2CCN(c3ccc(C(=O)NS(=O)(=O)c4ccc(N[C@H](CCN5CCOCC5)CSc5ccccc5)c(S(=O)(=O)C(F)(F)F)c4)cc3)CC2)C1 [Navitoclax] (partner 0.5 µM); assay: as above; settings: first compound 0.01 µM
Outline: as §1

Cell Line	relative viability
COR-L23	0.883
COR-L 105	0.671
LOU-NH91	0.673
ChaGo-K-1	0.939
NCI-H2170	0.614
NCI-H2405	0.7
HOP-62	1
LU99A	0.811
BEN	0.0623
HARA	1.15
HCC-78	0.772
NCI-H322M	1.3
LCLC-97TM1	0.567
NCI-H2009	1.14
A-427	0.961
NCI-H441	0.705

Cell Line	relative viability
NCI-H1734	0.746
NCI-H460	1.19
NCI-H2347	0.759
SK-LU-1	0.738
NCI-H1395	1.01
201T	1.18
NCI-H1915	0.781
HCC-827	1.06
LXF-289	0.949
NCI-H23	0.894
NCI-H647	1.05
CAL-12T	1.22
NCI-H1651	1.14
EPLC-272H	1.13
NCI-H2228	1.03

same assay, conditions: first compound 0.03162 µM

Cell Line	relative viability
COR-L23	0.792
COR-L 105	0.757
LOU-NH91	0.53
ChaGo-K-1	0.691
NCI-H2170	0.561
NCI-H2405	0.218
HOP-62	1.08
LU99A	0.86
BEN	0.0739
HARA	1.17
HCC-78	0.708
NCI-H322M	1.29
LCLC-97TM1	0.564
NCI-H2009	1.05
A-427	0.979
NCI-H441	0.449

Cell Line	relative viability
NCI-H1734	0.629
NCI-H460	1.05
NCI-H2347	0.742
SK-LU-1	0.894
NCI-H1395	0.635
201T	1.16
NCI-H1915	0.765
HCC-827	1
LXF-289	0.858
NCI-H23	0.632
NCI-H647	0.883
CAL-12T	1.17
NCI-H1651	1.13
EPLC-272H	0.999
NCI-H2228	0.999

same assay, conditions: first compound 0.1 µM

Cell Line	relative viability
COR-L23	0.358
COR-L 105	0.491
LOU-NH91	0.648
ChaGo-K-1	0.461
NCI-H2170	0.367
NCI-H2405	0.106
HOP-62	0.967
LU99A	0.323
BEN	0.0643
HARA	0.98
HCC-78	0.635
NCI-H322M	1.2
LCLC-97TM1	0.246
NCI-H2009	0.7
A-427	0.941
NCI-H441	0.152
NCI-H1734	0.636
NCI-H460	0.0795
NCI-H2347	0.744
SK-LU-1	0.52
NCI-H1395	0.732
201T	1.21
NCI-H1915	0.694
HCC-827	0.99
LXF-289	0.658
NCI-H23	0.567
NCI-H647	0.378
CAL-12T	0.834
NCI-H1651	0.683
NCI-H2228	0.933

same assay, conditions: first compound 0.3162 µM

Cell Line	relative viability
COR-L23	0.0817
COR-L 105	0.311
LOU-NH91	0.316
ChaGo-K-1	0.311
NCI-H2170	0.167
NCI-H2405	0.0606
HOP-62	0.0716
LU99A	0.108
BEN	0.0627
HARA	0.103
HCC-78	0.344
NCI-H322M	0.608
LCLC-97TM1	0.121
NCI-H2009	0.121
A-427	0.284
NCI-H441	0.152

Cell Line	relative viability
NCI-H1734	0.102
NCI-H460	0.0095
NCI-H2347	0.358
SK-LU-1	0.118
NCI-H1395	0.42
201T	0.939
NCI-H1915	0.11
HCC-827	0.23
LXF-289	0.064
NCI-H23	0.192
NCI-H647	0.0407
CAL-12T	0.164
NCI-H1651	0.0829
EPLC-272H	0.0617
NCI-H2228	0.0826

same assay, conditions: first compound 1 µM

Cell Line	relative viability
COR-L23	0.0706
COR-L 105	0.271
LOU-NH91	0.261
ChaGo-K-1	0.346
NCI-H2170	0.187
NCI-H2405	0.116
HOP-62	0.0536
LU99A	0.132
BEN	0.0546
HARA	0.0669
HCC-78	0.144
NCI-H322M	0.333
LCLC-97TM1	0.142
NCI-H2009	0.0887
A-427	0.165
NCI-H441	0.178

Cell Line	relative viability
NCI-H1734	0.113
NCI-H460	0.0103
NCI-H2347	0.326
SK-LU-1	0.139
NCI-H1395	0.467
201T	0.33
NCI-H1915	0.0514
HCC-827	0.186
LXF-289	0.0512
NCI-H23	0.127
NCI-H647	0.0778
CAL-12T	0.144
NCI-H1651	0.055
EPLC-272H	0.0715
NCI-H2228	0.121
